Test results taken from the CheMixHub viscosity set.

Test: xn = mol fraction of the nth substance listed

CCCCN + CCCCO
Conditions	viscosity [mPa·s]
293.15 K, 101 kPa, x1 = 0.1	2.51
293.15 K, 101 kPa, x1 = 0.3	1.85
293.15 K, 101 kPa, x1 = 0.5	1.25
293.15 K, 101 kPa, x1 = 0.7	0.95
293.15 K, 101 kPa, x1 = 0.9	0.68
298.15 K, 100 kPa, x2 = 0.099	0.553
298.15 K, 100 kPa, x2 = 0.195	0.663
298.15 K, 100 kPa, x2 = 0.294	0.794
298.15 K, 100 kPa, x2 = 0.401	0.951
298.15 K, 100 kPa, x2 = 0.493	1.101
298.15 K, 100 kPa, x2 = 0.6	1.312
298.15 K, 100 kPa, x2 = 0.695	1.531
298.15 K, 100 kPa, x2 = 0.8	1.818
298.15 K, 100 kPa, x2 = 0.893	2.131
298.15 K, 101.32 kPa, x2 = 0.0983	0.5497
298.15 K, 101.32 kPa, x2 = 0.1986	0.6488
298.15 K, 101.32 kPa, x2 = 0.2972	0.7685
298.15 K, 101.32 kPa, x2 = 0.4004	0.9222
298.15 K, 101.32 kPa, x2 = 0.4976	1.085
298.15 K, 101.32 kPa, x2 = 0.5988	1.291
298.15 K, 101.32 kPa, x2 = 0.7009	1.518
298.15 K, 101.32 kPa, x2 = 0.7974	1.782
298.15 K, 101.32 kPa, x2 = 0.899	2.123
303.15 K, 101 kPa, x1 = 0.01068	2.228
303.15 K, 101 kPa, x1 = 0.02055	2.205
303.15 K, 101 kPa, x1 = 0.0277	2.185
303.15 K, 101 kPa, x1 = 0.04127	2.155
303.15 K, 101 kPa, x1 = 0.05004	2.135
303.15 K, 101 kPa, x1 = 0.05896	2.116
303.15 K, 101 kPa, x1 = 0.07244	2.087
303.15 K, 101 kPa, x1 = 0.08331	2.059
303.15 K, 101 kPa, x1 = 0.09019	2.04
303.15 K, 101.33 kPa, x1 = 0.092	2.08
303.15 K, 101.33 kPa, x1 = 0.1008	1.909
303.15 K, 101.33 kPa, x1 = 0.1886	1.829
303.15 K, 101.33 kPa, x1 = 0.2007	1.627
303.15 K, 101.33 kPa, x1 = 0.2824	1.565
303.15 K, 101.33 kPa, x1 = 0.3004	1.395
303.15 K, 101.33 kPa, x1 = 0.3824	1.314
303.15 K, 101.33 kPa, x1 = 0.4	1.191
303.15 K, 101.33 kPa, x1 = 0.5009	1.019
303.15 K, 101.33 kPa, x1 = 0.5186	1.036
303.15 K, 101.33 kPa, x1 = 0.6001	0.869
303.15 K, 101.33 kPa, x1 = 0.6186	0.8627
303.15 K, 101.33 kPa, x1 = 0.6997	0.734
303.15 K, 101.33 kPa, x1 = 0.7158	0.7221
303.15 K, 101.33 kPa, x1 = 0.7999	0.625
303.15 K, 101.33 kPa, x1 = 0.8131	0.6087
303.15 K, 101.33 kPa, x1 = 0.9001	0.536
303.15 K, 101.33 kPa, x1 = 0.9011	0.5224
313.15 K, 101.3 kPa, x2 = 0.0992	0.4434
313.15 K, 101.3 kPa, x2 = 0.1967	0.516
313.15 K, 101.3 kPa, x2 = 0.2981	0.602
313.15 K, 101.3 kPa, x2 = 0.398	0.7038
313.15 K, 101.3 kPa, x2 = 0.4956	0.8181
313.15 K, 101.3 kPa, x2 = 0.5979	0.9549
313.15 K, 101.3 kPa, x2 = 0.6978	1.108
313.15 K, 101.3 kPa, x2 = 0.8009	1.289
313.15 K, 101.3 kPa, x2 = 0.9	1.503
313.15 K, 101.33 kPa, x1 = 0.092	1.662
313.15 K, 101.33 kPa, x1 = 0.1008	1.518
313.15 K, 101.33 kPa, x1 = 0.1886	1.476
313.15 K, 101.33 kPa, x1 = 0.2007	1.305
313.15 K, 101.33 kPa, x1 = 0.2824	1.286
313.15 K, 101.33 kPa, x1 = 0.3004	1.12
313.15 K, 101.33 kPa, x1 = 0.3824	1.086
313.15 K, 101.33 kPa, x1 = 0.4	0.976
313.15 K, 101.33 kPa, x1 = 0.5009	0.843
313.15 K, 101.33 kPa, x1 = 0.5186	0.856
313.15 K, 101.33 kPa, x1 = 0.6001	0.73
313.15 K, 101.33 kPa, x1 = 0.6186	0.7186
313.15 K, 101.33 kPa, x1 = 0.6997	0.622
313.15 K, 101.33 kPa, x1 = 0.7158	0.6085
313.15 K, 101.33 kPa, x1 = 0.7999	0.539
313.15 K, 101.33 kPa, x1 = 0.8131	0.5227
313.15 K, 101.33 kPa, x1 = 0.9001	0.47
313.15 K, 101.33 kPa, x1 = 0.9011	0.4542
323.15 K, 101.33 kPa, x1 = 0.1008	1.228
323.15 K, 101.33 kPa, x1 = 0.2007	1.065
323.15 K, 101.33 kPa, x1 = 0.3004	0.92
323.15 K, 101.33 kPa, x1 = 0.4	0.803
323.15 K, 101.33 kPa, x1 = 0.5009	0.7
323.15 K, 101.33 kPa, x1 = 0.6001	0.615
323.15 K, 101.33 kPa, x1 = 0.6997	0.534
323.15 K, 101.33 kPa, x1 = 0.7999	0.467
323.15 K, 101.33 kPa, x1 = 0.9001	0.407

O=C([O-])c1ccccc1O.[Na+] + O
viscosity [mPa·s]
Conditions	293.15 K	298.15 K	303.15 K	308.15 K	313.15 K	318.15 K
100 kPa, x1 = 5.685e-05	1.003	0.8913	0.7982	0.7198	0.6537	–
100 kPa, x1 = 0.0001129	1.006	0.8924	0.7983	0.7207	0.6543	–
100 kPa, x1 = 0.0004518	1.013	0.8989	0.8049	0.7259	0.659	–
100 kPa, x1 = 0.0009067	1.024	0.9079	0.8132	0.7334	0.6657	–
100 kPa, x1 = 0.001366	1.037	0.9164	0.8198	0.7394	0.6711	–
100 kPa, x1 = 0.001826	1.045	0.9259	0.8289	0.748	0.6781	–
100 kPa, x1 = 0.002292	1.056	0.9367	0.8375	0.7552	0.6844	–
100 kPa, x1 = 0.00276	1.067	0.9449	0.8458	0.7614	0.6908	–
100 kPa, x1 = 0.003231	1.076	0.9506	0.8501	0.7666	0.6959	–
101 kPa, x1 = 0.000472	1.014	0.9009	–	–	–	–
101 kPa, x1 = 0.000925	1.025	0.9102	–	–	–	–
101 kPa, x1 = 0.001	1.025	0.9152	0.8184	0.7362	0.6684	0.6111
101 kPa, x1 = 0.00135	1.036	0.9188	–	–	–	–
101 kPa, x1 = 0.0018	1.046	0.9279	–	–	–	–
101 kPa, x1 = 0.002	1.05	0.9359	0.8392	0.7538	0.6817	0.6235
101 kPa, x1 = 0.00224	1.057	0.937	–	–	–	–
101 kPa, x1 = 0.002288	–	0.946	0.842	0.757	0.684	–
101 kPa, x1 = 0.002647	1.067	0.9454	–	–	–	–
101 kPa, x1 = 0.003578	1.089	–	–	–	–	–
101 kPa, x1 = 0.004685	–	0.983	0.875	0.786	0.714	–
101 kPa, x1 = 0.005317	1.131	–	–	–	–	–
101 kPa, x1 = 0.007012	1.171	–	–	–	–	–
101 kPa, x1 = 0.009424	–	1.083	0.963	0.863	0.781	–
101 kPa, x1 = 0.01337	–	1.188	1.055	0.944	0.846	–
101 kPa, x1 = 0.01919	–	1.354	1.195	1.063	0.95	–
101 kPa, x1 = 0.02192	–	1.44	1.265	1.125	1.008	–
101 kPa, x1 = 0.02737	–	1.628	1.423	1.261	1.132	–
